ChEMBL document CHEMBL1145849, “QSAR and the rational design of long-acting dual D2-receptor/beta 2-adrenoceptor agonists” (J Med Chem, 2003)

Key:
[1] = biological target: Beta-2 adrenergic receptor (Cavia porcellus) (UniProt Q8K4Z4)
Description: In vitro beta-2 duration was determined using electrically stimulated guinea-pig isolated trachea superfusion system

[2] = biological target: Beta-2 adrenergic receptor (Cavia porcellus) (UniProt Q8K4Z4); conditions: Trachea
Description: Beta-2-adrenoceptor potency was determined in rings of guinea-pig isolated trachea

physchem [3] = conditions: octanol/water, pH 7.4, logD
physchem [4] = experiment: physchem
Description: Ionization constant (pKa)

Chain of Beta-2 adrenergic receptor (Cavia porcellus) (Q8K4Z4 whole entry, looked up): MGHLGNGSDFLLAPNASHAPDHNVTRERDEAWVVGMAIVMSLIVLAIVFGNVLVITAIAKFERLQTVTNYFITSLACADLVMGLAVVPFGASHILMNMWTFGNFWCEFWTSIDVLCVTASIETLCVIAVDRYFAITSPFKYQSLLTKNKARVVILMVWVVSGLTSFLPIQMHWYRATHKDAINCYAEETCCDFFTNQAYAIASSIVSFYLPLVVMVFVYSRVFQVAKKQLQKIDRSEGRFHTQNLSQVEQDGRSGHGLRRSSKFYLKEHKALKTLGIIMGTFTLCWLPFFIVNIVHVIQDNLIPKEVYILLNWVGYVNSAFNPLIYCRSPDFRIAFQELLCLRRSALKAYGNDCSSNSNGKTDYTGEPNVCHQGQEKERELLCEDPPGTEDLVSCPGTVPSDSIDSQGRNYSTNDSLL

Row | Structure (SMILES) | Beta2 duration [1] [min] | p[A]50 [2] | logD (physchem [3]) | pKa (physchem [4])
1 | O=S(=O)(CCCNCCc1ccc(O)c2nc(O)sc12)CCOCCCc1ccccc1 | > 180 | 8.69 | 2.1 | > 8
2 | Oc1nc2c(O)ccc(CCNCCCCCCNCC(F)(F)c3ccccc3)c2s1 | > 180 | 6.84 | 1.57 | > 8
3 | Nc1ccccc1CCOCCS(=O)(=O)CCCNCCc1ccc(O)c2nc(O)sc12 | 33 | 7.46 | 1.17 | > 8
4 | Oc1nc2c(O)ccc(CCNCCCSCCOCCc3ccccn3)c2s1 | 75 | 7.32 | 0.83 | > 8
5 | Oc1nc2c(O)ccc(CCNCCNCCCOCCc3ccccc3)c2s1 | 32 | 7.01 | 0.88 | > 8
6 | Cc1cnc(CCOCCCS(=O)(=O)CCNCCc2ccc(O)c3nc(O)sc23)s1 | 126 | 7.61 | 2.87 | < 8
7 | Oc1nc2c(O)ccc(CCNCCC(F)(F)CCCOCCc3ccccc3)c2s1 | > 180 | 7.77 | 3.26 | > 8
8 | O=S(=O)(CCCNCCc1ccc(O)c2nc(O)sc12)CCOCCc1cccc2ccccc12 | > 180 | 7.73 | 2.54 | > 8
9 | O=[N+]([O-])c1ccc(CCOCCCSCCNCCc2ccc(O)c3nc(O)sc23)cc1 | > 180 | 6.78 | 3.29 | > 8
10 | O=S(=O)(CCCOCCc1nccs1)CCNCCc1ccc(O)c2nc(O)sc12 | 45 | 7.72 | 2.35 | < 8
11 | Oc1nc2c(O)ccc(CCNCCCSCCOCCCc3ccccc3)c2s1 | > 180 | 7.86 | 2.8 | > 8
12 | [O-][S+](CCCNCCc1ccc(O)c2nc(O)sc12)CCOCCc1ccccc1 (configuration not stated) | 84 | 8.47 | 1.12 | > 8
13 | Oc1nc2c(O)ccc(CCNCCSCCCOCCc3ccccc3)c2s1 | > 180 | 8.36 | 2.86 | > 8
14 | Oc1nc2c(O)ccc(CCNCCCOCCSCCc3ccccc3)c2s1 | > 180 | 7.03 | 1.73 | > 8
15 | O=S(=O)(CCCOCCc1ccc(O)cc1)CCNCCc1ccc(O)c2nc(O)sc12 | 32 | 8.65 | 1.91 | < 8
16 | O=S(=O)(CCCNCCc1ccc(O)c2nc(O)sc12)CCSCCc1ccccc1 | > 180 | 7.57 | 2.34 | > 8
17 | O=S(=O)(CCOCCc1ccccc1)NCCCNCCc1ccc(O)c2nc(O)sc12 | 69 | 7.51 | 1.22 | > 8
18 | O=C(CCOCCCc1ccccc1)NCCNCCc1ccc(O)c2nc(O)sc12 | 150 | 8.63 | 1.91 | > 8
19 | O=S(=O)(CCCNCCc1ccc(O)c2nc(O)sc12)CCOCCOc1ccccc1 | 52 | 7.44 | 1.13 | > 8
20 | O=S(=O)(CCCOCCc1ccc(NS(=O)(=O)c2ccccc2)cc1)CCNCCc1ccc(O)c2nc(O)sc12 | > 180 | 7.7 | 2.88 | < 8
21 | Oc1nc2cccc(CCNCCCCCCNCCc3ccc(O)c4nc(O)sc34)c2s1 | 45 | 7.86 | 1 | > 8
22 | O=[N+]([O-])c1ccc(CCOCCCS(=O)(=O)CCNCCc2ccc(O)c3nc(O)sc23)cc1 | 77 | 6.73 | 2.32 | < 8
23 | Oc1nc2c(O)ccc(CCNCCSCCCOCCc3ccccn3)c2s1 | > 180 | 7.51 | 1.75 | > 8
